Measured values taken from US12540120B2, “Herbicidal compounds” (SYNGENTA CROP PROTECTION AG, priority 2019, dated 2026).

How the values were obtained:
Assay type in all cases: in vivo
Zea Mays (ZEAMX) [1] = assay: B3 Post-Emergence Efficacy—Test 3; conditions: post-emergence application, 250 g/ha, evaluated after 13 days (Test 3)
Description: (§1) B3 Post-Emergence Efficacy—Test 3 Seeds of a variety of test species are sown in standard soil in pots:—Amaranthus retoflexus (AMARE), Setaria faberi (SETFA), Echinochloa crus-galli (ECHCG), Ipomoea hederacea (IPOHE), Zea Mays (ZEAMX), Abutilon theophrasti (ABUTH). After 8 days cultivation (post-emergence) under controlled conditions in a glasshouse (at 24/16° C., day/night; 14 hours light; 65% humidity), the plants are sprayed with an aqueous spray solution derived from the formulation of the technical active ingredient in acetone/water (50:50) solution containing 0.5% Tween 20 (polyoxyethylene sorbitan monolaurate, CAS RN 9005-64-5). Compounds are applied at 250 g/ha. The test plants are then grown in a glasshouse under controlled conditions in a glasshouse (at 24/16° C., day/night; 14 hours light; 65% humidity) and watered twice daily. After 13 days, the test is evaluated for the percentage damage caused to the plant. The biological activities are assessed on a five point scale (5=80-100%; 4=60-79%; 3=40-59%; 2=20-39%; 1=0-19%). A blank value in the table is indicative that the compound was not tested on that species.

Setaria faberi (SETFA) [2] = assay: B3 Post-Emergence Efficacy—Test 3; conditions: post-emergence application, 250 g/ha, evaluated after 13 days (Test 3)
Description: as §1

[3] = system: Ipomoea hederacea (IPOHE); assay: B3 Post-Emergence Efficacy—Test 3; conditions: post-emergence application, 250 g/ha, evaluated after 13 days (Test 3)
Description: as §1

[4] = system: Abutilon theophrasti (ABUTH); assay: B3 Post-Emergence Efficacy—Test 3; conditions: post-emergence application, 250 g/ha, evaluated after 13 days (Test 3)
Description: as §1

[5] = system: Amaranthus retoflexus (AMARE); assay: B3 Post-Emergence Efficacy—Test 3; conditions: post-emergence application, 250 g/ha, evaluated after 13 days (Test 3)
Description: as §1

Zea Mays (ZEAMX) [6] = assay: B6 Pre-Emergence Efficacy—Test 3; conditions: pre-emergence application, 250 g/ha, evaluated after 13 days (Test 3)
Description: (§2) B6 Pre-Emergence Efficacy—Test 3 Seeds of a variety of test species were sown in standard soil in pots: Amaranthus retoflexus (AMARE), Setaria faberi (SETFA), Echinochloa crus-galli (ECHCG), Ipomoea hederacea (IPOHE), Zea Mays (ZEAMX), Abutilon theophrasti (ABUTH). After cultivation for one day (pre-emergence) under controlled conditions in a glasshouse (at 24/16° C., day/night; 14 hours light; 65% humidity), the plants were sprayed with an aqueous spray solution derived from the formulation of the technical active ingredient in acetone/water (50:50) solution containing 0.5% Tween 20 (polyoxyethelyene sorbitan monolaurate, CAS RN 9005-64-5). Compounds are applied at 250 g/ha. The test plants were then grown in a glasshouse under controlled conditions (at 24/16° C., day/night; 14 hours light; 65% humidity) and watered twice daily. After 13 days, the test is evaluated for the percentage damage caused to the plant. The biological activities are assessed on a five point scale (5=80-100%; 4=60-79%; 3=40-59%; 2=20-39%; 1=0-19%). A blank value in the table is indicative that the compound was not tested on that species.

Setaria faberi (SETFA) [7] = assay: B6 Pre-Emergence Efficacy—Test 3; conditions: pre-emergence application, 250 g/ha, evaluated after 13 days (Test 3)
Description: as §2

[8] = system: Ipomoea hederacea (IPOHE); assay: B6 Pre-Emergence Efficacy—Test 3; conditions: pre-emergence application, 250 g/ha, evaluated after 13 days (Test 3)
Description: as §2

[9] = system: Abutilon theophrasti (ABUTH); assay: B6 Pre-Emergence Efficacy—Test 3; conditions: pre-emergence application, 250 g/ha, evaluated after 13 days (Test 3)
Description: as §2

[10] = system: Amaranthus retoflexus (AMARE); assay: B6 Pre-Emergence Efficacy—Test 3; conditions: pre-emergence application, 250 g/ha, evaluated after 13 days (Test 3)
Description: as §2

[11] = system: Echinochloa crus-galli (ECHCG); assay: B6 Pre-Emergence Efficacy—Test 3; conditions: pre-emergence application, 250 g/ha, evaluated after 13 days (Test 3)
Description: as §2

Setaria faberi (SETFA) [12] = assay: B2 Post-Emergence Efficacy—Test 2; conditions: post-emergence application, 250 g/ha, evaluated after 13 days (Test 2)
Summary of the method: (§3)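 Damage rated 13 days after treatment on a 1–5 scale (1=0-19%, 5=80-100%). Compounds were applied at 250 g/ha in acetone/water (50:50) with 0.5% Tween 20 to 8-day-old seedlings, grown under glasshouse conditions of 24/16 °C day/night, 14 h light, 65% humidity.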

[13] = system: Ipomoea hederacea (IPOHE); assay: B2 Post-Emergence Efficacy—Test 2; conditions: post-emergence application, 250 g/ha, evaluated after 13 days (Test 2)
Summary of the method: as §3

Solanum nigrum (SOLNI) [14] = assay: B2 Post-Emergence Efficacy—Test 2; conditions: post-emergence application, 250 g/ha, evaluated after 13 days (Test 2)
Summary of the method: as §3

Lolium perenne (LOLPE) [15] = assay: B2 Post-Emergence Efficacy—Test 2; conditions: post-emergence application, 250 g/ha, evaluated after 13 days (Test 2)
Summary of the method: as §3

[16] = system: Amaranthus retoflexus (AMARE); assay: B2 Post-Emergence Efficacy—Test 2; conditions: post-emergence application, 250 g/ha, evaluated after 13 days (Test 2)
Summary of the method: as §3

[17] = system: Echinochloa crus-galli (ECHCG); assay: B2 Post-Emergence Efficacy—Test 2; conditions: post-emergence application, 250 g/ha, evaluated after 13 days (Test 2)
Summary of the method: as §3

Solanum nigrum (SOLNI) [18] = assay: B5 Pre-Emergence Efficacy—Test 2; conditions: 250 g/ha, evaluated after 13 days
Summary of the method: (§4)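 Scores are percentage plant damage on a five-point scale (5=80-100%; 4=60-79%; 3=40-59%; 2=20-39%; 1=0-19%), taken 13 days after a pre-emergence spray of 250 g/ha. Sowing preceded spraying by one day; glasshouse at 24/16 °C, 65% humidity.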

[19] = system: Amaranthus retoflexus (AMARE); assay: B5 Pre-Emergence Efficacy—Test 2; conditions: 250 g/ha, evaluated after 13 days
Summary of the method: as §4

Setaria faberi (SETFA) [20] = assay: B5 Pre-Emergence Efficacy—Test 2; set-up: key: 5-point scale: 5=80-100%, 4=60-79%, 3=40-59%, 2=20-39%, 1=0-19% damage; conditions: 250 g/ha, evaluated after 13 days
Summary of the method: as §4

[21] = system: Ipomoea hederacea (IPOHE); assay: B5 Pre-Emergence Efficacy—Test 2; set-up: key: 5-point scale: 5=80-100%, 4=60-79%, 3=40-59%, 2=20-39%, 1=0-19% damage; conditions: 250 g/ha, evaluated after 13 days
Summary of the method: as §4

Lolium perenne (LOLPE) [22] = assay: B5 Pre-Emergence Efficacy—Test 2; set-up: key: 5-point scale: 5=80-100%, 4=60-79%, 3=40-59%, 2=20-39%, 1=0-19% damage; conditions: 250 g/ha, evaluated after 13 days
Summary of the method: as §4

[23] = system: Echinochloa crus-galli (ECHCG); assay: B5 Pre-Emergence Efficacy—Test 2; set-up: key: 5-point scale: 5=80-100%, 4=60-79%, 3=40-59%, 2=20-39%, 1=0-19% damage; conditions: 250 g/ha, evaluated after 13 days
Summary of the method: as §4

Structure (SMILES)	percentage damage caused to the plant, five point scale, ZEAMX (Zea Mays (ZEAMX) [1])	percentage damage caused to the plant, five point scale, SETFA (Setaria faberi (SETFA) [2])	percentage damage caused to the plant, five point scale, IPOHE [3]	percentage damage caused to the plant, five point scale, ABUTH [4]	percentage damage caused to the plant, five point scale, AMARE [5]	percentage damage caused to the plant, five point scale, ZEAMX (Zea Mays (ZEAMX) [6])	percentage damage caused to the plant, five point scale, SETFA (Setaria faberi (SETFA) [7])	percentage damage caused to the plant, five point scale, IPOHE [8]	percentage damage caused to the plant, five point scale, ABUTH [9]	percentage damage caused to the plant, five point scale, AMARE [10]	further results
Cc1nn(C)c(=O)c(-c2c(F)ccc(Cl)c2CCc2ccc(C(N)=O)cc2)c1O [Compound A-1.392]	2 (2=20-39%)	5 (5=80-100%)	3 (3=40-59%)	4 (4=60-79%)	5 (5=80-100%)	2 (2=20-39%)	5 (5=80-100%)	5 (5=80-100%)	5 (5=80-100%)	5 (5=80-100%)	percentage damage caused to the plant, five point scale, ECHCG [11]: 5 (5=80-100%)
CNS(=O)(=O)c1ccc(CCc2c(Cl)ccc(F)c2-c2c(O)c(C)nn(C)c2=O)cc1 [Compound A-1.390]	1 (1=0-19%)	5 (5=80-100%)	4 (4=60-79%)	4 (4=60-79%)	5 (5=80-100%)	1 (1=0-19%)	5 (5=80-100%)	5 (5=80-100%)	5 (5=80-100%)	5 (5=80-100%)	
Cc1nn(C)c(=O)c(-c2c(F)ccc(Cl)c2CCc2ccc(OC(C)(C)C)cc2)c1O [Compound A-1.035]											percentage damage caused to the plant, five point scale, SETFA (Setaria faberi (SETFA) [12]): 4 (4=60-79%); percentage damage caused to the plant, five point scale, IPOHE [13]: 4 (4=60-79%); percentage damage caused to the plant, five point scale, SOLNI (Solanum nigrum (SOLNI) [14]): 5 (5=80-100%); percentage damage caused to the plant, five point scale, LOLPE (Lolium perenne (LOLPE) [15]): 4 (4=60-79%); percentage damage caused to the plant, five point scale, AMARE [16]: 4 (4=60-79%); percentage damage caused to the plant, five point scale, ECHCG [17]: 4 (4=60-79%); Control of weed species after pre-emergence application, SOLNI (percentage damage, five point scale) (Solanum nigrum (SOLNI) [18]): 3 (3=40-59%); Control of weed species after pre-emergence application, AMARE (percentage damage, five point scale) [19]: 4 (4=60-79%); Control of weed species after pre-emergence application, SETFA (percentage damage, five point scale) (Setaria faberi (SETFA) [20]): 3 (3=40-59%); Control of weed species after pre-emergence application, IPOHE (percentage damage, five point scale) [21]: 1 (1=0-19%); Control of weed species after pre-emergence application, LOLPE (percentage damage, five point scale) (Lolium perenne (LOLPE) [22]): 3 (3=40-59%); Control of weed species after pre-emergence application, ECHCG (percentage damage, five point scale) [23]: 1 (1=0-19%)
